Reference: BindingDB's records for doi:10.1016/j.bmcl.2015.04.057 (Merck Research Laboratories, 2015)

Assays:
[1] = target: T1, Coagulation factor IX (Homo sapiens, UniProt P00740); assay: (§1) Inhibition of human coagulation factor 9a using fluorescent peptide CH3SO2-D-CHG-Gly-Arg-AFC-AcoH as substrate
[2] = target: T1, Coagulation factor IX; assay: as §1; remark: listed apart in the source

T1 sequence (P00740 47-191 limits assumed): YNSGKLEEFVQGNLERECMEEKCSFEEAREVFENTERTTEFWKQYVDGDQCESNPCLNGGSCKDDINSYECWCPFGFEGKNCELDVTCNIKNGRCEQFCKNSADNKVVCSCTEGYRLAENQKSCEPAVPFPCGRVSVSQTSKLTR
T1 sequence (P00740 227-461 limits assumed): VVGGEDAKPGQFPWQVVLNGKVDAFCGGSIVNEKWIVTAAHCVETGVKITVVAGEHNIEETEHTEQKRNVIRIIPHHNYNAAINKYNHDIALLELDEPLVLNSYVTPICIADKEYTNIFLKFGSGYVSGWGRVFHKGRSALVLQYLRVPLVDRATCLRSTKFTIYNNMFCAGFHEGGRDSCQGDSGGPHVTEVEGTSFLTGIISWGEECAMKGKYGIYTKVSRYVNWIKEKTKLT

Cc1cc2nc([C@@H](CNC(=O)c3c(Cl)cc(-n4cnnc4)cc3Cl)c3ccccc3)[nH]c2cc1C
Ki [1]: 15.4 nM | Ki [2]: 15 nM
